The record followed here is patent EP4810052A2, “HCRHR2 SELECTIVE POLYPEPTIDES” (Gubra A/S, priority 2023, dated 2026).

Where two headings read alike, the source gives them in different places. Starred links: 1 amine or outer side, 2 acyl side, 3 side chain; linkers in the order of their positions; H or OH if unused. Residues, ends and D or L forms follow the SMILES beside them. Groups on a side chain read outwards from the residue. *: point of attachment. C20 diacid = O=C(O)CCCCCCCCCCCCCCCCCCC(=O)*; γGlu = O=C(O)[C@H](CCC(=O)[*:2])N[*:1]; AEEA = NCCOCCOCC(=O)O

The target in series [1] is T1, hCRHR1 (Homo sapiens, UniProt P34998).
T1 sequence (P34998 24-415): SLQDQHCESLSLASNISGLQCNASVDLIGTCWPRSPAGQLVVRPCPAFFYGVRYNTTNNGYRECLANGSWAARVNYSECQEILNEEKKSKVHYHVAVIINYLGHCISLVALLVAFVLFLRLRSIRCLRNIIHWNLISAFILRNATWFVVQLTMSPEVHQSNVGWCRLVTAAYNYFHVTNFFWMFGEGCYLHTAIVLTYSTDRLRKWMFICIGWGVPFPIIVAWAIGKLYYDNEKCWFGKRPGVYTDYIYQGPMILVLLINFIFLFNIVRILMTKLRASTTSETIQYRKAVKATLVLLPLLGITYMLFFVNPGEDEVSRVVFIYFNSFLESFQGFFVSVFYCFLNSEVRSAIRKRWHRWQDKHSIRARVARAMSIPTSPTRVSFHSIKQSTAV
The series is described as follows: HTRF cAMP assay, determination of hCRHR1 potency (peptide libraries 5 conc., purified peptides 11 conc.). The series is classed as cell-based. Put shortly:
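Cellular cAMP was read by time-resolved FRET between d2-labelled cAMP and cryptate anti-cAMP antibody. The cells were freshly thawed suspension CHO-K1 cells stably expressing human CRHR1.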

Series [2] is described as follows: Chemical stability of purified peptides (RP-UHPLC main peak purity loss). The series is classed as physicochemical. In a few lines:
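Purity loss is the drop in RP-UHPLC main-peak area fraction (215 nm detection, C8 column at 50 °C) from time zero to day 14 and/or day 28 at 40 °C. Samples held roughly 1.0 mg/ml peptide in 50 mM phosphate, pH 7.5, with other pH targets also tested.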

Another series is described as follows: PK in mice. The series is classed as in vivo. Particulars: for half-life: read-out: T½ (converted). Set-up: T½ / MRT: unit: h. Put shortly:
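Male NMRI/RjHan lean mice, about 8 weeks old after acclimatization, got one peptide IV and another SC at 15 or 50 nmol/kg. Sparse plasma sampling (3 mice per timepoint) ran from 0.17 to 96 h post-dose. LC-MS/MS quantified plasma levels, with parameters from non-compartmental analysis.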

The test system of a further series is pCRHR1. In words: cAMP potency, transiently transfected CHO-K1 cells, pCRHR1. The series is classed as cell-based, pig. Particulars: transiently transfected CHO-K1, average n=3; read-out: Transient cell system EC50 (nM) pCRHR 1. On the procedure:
(§1) Selected peptides were tested for potency on different species (mouse, rat, porcine) using transiently transfected CHO-K1 cells using the general procedure.

Another series has as its system pCRHR2. The series is described as follows: cAMP potency, transiently transfected CHO-K1 cells, pCRHR2. The series is classed as cell-based, pig. Particulars: transiently transfected CHO-K1, average n=3; read-out: Transient cell system EC50 (nM) pCR HR2. On the procedure: as §1
The target in series [3] is T1, hCRHR1. In words: cAMP potency, transiently transfected CHO-K1 cells, hCRHR1. The series is classed as cell-based. Set-up: DYK (FLAG); host or cells: CHO-K1, transiently transfected. Particulars: transiently transfected CHO-K1, average n=3; read-out: Transient cell system EC50 (nM) hCR HR1.
The mark [4] stands for this setting: male, NMRI/RjHan, in vivo, iv, Mouse, 50 nmol/kg i.v.
The mark [5] stands for this setting: male, NMRI/RjHan, in vivo, sc, Mouse, 50 nmol/kg s.c.

Turning to `CC[C@H](C)[C@H](N)C(=O)N[C@H](C(=O)N[C@@H](CC(C)C)C(=O)N[C@@H](CO)C(=O)N[C@@H](CC(C)C)C(=O)N[C@@H](CC(=O)O)C(=O)N[C@H](C(=O)N1CCC[C@H]1C(=O)N[C@H](C(=O)NCC(=O)N[C@@H](CC(C)C)C(=O)N[C@@H](CC(C)C)C(=O)N[C@@H](CCC(N)=O)C(=O)N[C@H](C(=O)N[C@@H](CC(C)C)C(=O)N[C@@H](CC(C)C)C(=O)N[C@@H](CCC(=O)O)C(=O)N[C@@H](CCC(N)=O)C(=O)N[C@@H](C)C(=O)N[C@@H](CCCNC(=N)N)C(=O)N[C@@H](C)C(=O)N[C@@H](CCCNC(=N)N)C(=O)N[C@@H](C)C(=O)N[C@@H](C)C(=O)N[C@@H](CCCNC(=N)N)C(=O)N[C@@H](CCC(=O)O)C(=O)N[C@@H](CCC(N)=O)C(=O)N[C@@H](C)C(=O)N[C@@H](CCCCNC(=O)COCCOCCNC(=O)COCCOCCNC(=O)CC[C@H](NC(=O)CC[C@H](NC(=O)CCCCCCCCCCCCCCCCCCC(=O)O)C(=O)O)C(=O)O)C(=O)N[C@H](C(=O)N[C@@H](CC(N)=O)C(=O)N[C@@H](C)C(=O)N[C@@H](CCC(=O)O)C(=O)N[C@H](C(=O)N[C@@H](CC(C)C)C(=O)N[C@@H](C)C(=O)N[C@@H](CCC(=O)O)C(=O)N[C@H](C(N)=O)C(C)C)[C@@H](C)CC)[C@@H](C)O)[C@@H](C)CC)[C@@H](C)CC)C(C)C)C(C)C` [SEQ ID NO: 3] (H-IVLSLDVPIGLLQILLEQARARAAREQAK([AEEA-AEEA-γGlu-γGlu-C20 diacid])TNAEILAEV-NH2), the EC50 at hCRHR1 [1] (Table 3, matched molecular pairs X^38 L vs Nle, peptide library of Example 4, read-out: hCRHR1 pEC50 (converted)) is 25100 nM; on hCRHR1 [1] (Table 5, purified peptides, read-out: hCRHR1 EC50), more than 5000 nM; at hCRHR1 [1] (purified peptides, CHO-K1 cells stably expressing hCRHR1, cAMP HTRF, read-out: hCRHR1 EC50), more than 5000 nM; on hCRHR1 [1] (stable cell system, Table 10, read-out: Stable EC50 (nM) hCRHR 1), more than 5000 nM; in the series on pCRHR1 it was more than 5000 nM; in the series on pCRHR2, 0.027 nM. Further, on hCRHR1 [3], the EC50 was more than 1000 nM. For the same compound, the “Chemical stability at pH 7.5 after 14 days at 40°C (% degradation)” value in series [2] (pH 7.5, 40°C, 14 days, first value of cell) is -6.1%; in series [2] (pH 7.5, 14 days, 40°C) it was -6.1%. Further, the “Chemical stability at pH 7.5 after 28 days at 40°C (% degradation)” value in series [2] (pH 7.5, 40°C, 28 days, second value of cell) is -15%; in series [2] (pH 7.5, 28 days, 40°C), -15%. Further, the MRT in the series “PK in mice” (Mouse) is 17.5. For the same compound, the T½ in the series “PK in mice” (Mouse) stood at 13.5. The compound further had a bioavailability in the series “PK in mice” (male, NMRI, mouse, in vivo, sc) of 43.1%. This compound also had a clearance in the series “PK in mice” (setting [4]) of less than 0.167 mL/min/kg. Moreover, the results for the half-life in “PK in mice” (setting [4]) and in “PK in mice” (setting [5]) were 13.5 h and 11.4 h, respectively. This compound also came in with a peak concentration (Cmax) in “PK in mice” (setting [5]) of 141 nM. The time of peak concentration (Tmax) in “PK in mice” (setting [5]) is 24 h.
